The experiment deals with SIK2 (Homo sapiens (Human), UniProt Q9H0K1). Description: SIK2 Enzymatic Assay Version 2 (High ATP). The conditions noted are these: 3 mM ATP and 200 μM HDAC5tide final, ADP-Glo Max luminescence. It counts as biochemical. In a few lines: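 Luminescent ADP-Glo Max read-out: depletion reagent 2 h, then detection reagent 1 h. Before the reaction, compounds were incubated 30 min with enzyme added at 6 nM (twice final concentration), with all steps at room temperature.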

The structures appear in SMILES notation.

Chain of SIK2 (Q9H0K1 whole entry, species assumed): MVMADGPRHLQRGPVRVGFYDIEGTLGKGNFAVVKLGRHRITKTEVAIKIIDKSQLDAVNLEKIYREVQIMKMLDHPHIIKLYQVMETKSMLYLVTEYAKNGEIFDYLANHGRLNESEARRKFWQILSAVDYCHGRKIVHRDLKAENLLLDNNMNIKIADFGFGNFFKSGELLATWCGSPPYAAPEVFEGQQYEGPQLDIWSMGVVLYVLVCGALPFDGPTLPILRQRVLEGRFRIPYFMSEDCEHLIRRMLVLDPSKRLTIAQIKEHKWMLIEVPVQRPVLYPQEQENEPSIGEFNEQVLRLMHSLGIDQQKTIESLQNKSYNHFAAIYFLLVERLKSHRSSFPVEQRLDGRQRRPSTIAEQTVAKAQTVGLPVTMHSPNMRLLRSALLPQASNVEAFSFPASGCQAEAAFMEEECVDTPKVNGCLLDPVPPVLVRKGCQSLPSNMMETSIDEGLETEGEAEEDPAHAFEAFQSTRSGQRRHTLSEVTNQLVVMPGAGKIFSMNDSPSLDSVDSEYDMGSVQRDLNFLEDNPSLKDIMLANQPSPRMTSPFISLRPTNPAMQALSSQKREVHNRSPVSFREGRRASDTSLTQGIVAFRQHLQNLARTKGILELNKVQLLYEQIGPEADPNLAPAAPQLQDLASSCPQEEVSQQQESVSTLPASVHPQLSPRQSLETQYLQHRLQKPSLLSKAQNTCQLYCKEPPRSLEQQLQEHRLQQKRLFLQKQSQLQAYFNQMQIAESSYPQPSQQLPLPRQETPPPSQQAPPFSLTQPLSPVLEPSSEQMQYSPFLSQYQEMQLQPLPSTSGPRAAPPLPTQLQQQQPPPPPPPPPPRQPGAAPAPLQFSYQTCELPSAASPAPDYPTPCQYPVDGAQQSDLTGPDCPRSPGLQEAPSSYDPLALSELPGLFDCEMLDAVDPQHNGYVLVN

Take `CO[C@H]1CNC[C@H]1Oc1noc(C)c1-c1ccn2nc(NC(=O)C3CC3)cc2c1` (single isomer, unassigned) [Example 385, (3*R,4*S)—N-[5-[3-(4-methoxypyrrolidin-3-yl)oxy-5-methyl-isoxazol-4-yl]pyrazolo[1,5-a]pyridin-2-yl]cyclopropanecarboxamide]: it took 124 nM to reach half-maximal inhibition (IC50).
To `Cn1ncc(O[C@H]2CNC[C@H]2F)c1-c1ccn2nc(NC(=O)C3CC3)cc2c1` [Example 504, N-[5-[4-[(3S,4R)-4-fluoropyrrolidin-3-yl]oxy-2-methyl-pyrazol-3-yl]pyrazolo[1,5-a]pyridin-2-yl]cyclopropanecarboxamide] belongs 466 nM.
For `C[C@@H]1[C@@H](COc2cnn(C)c2-c2ccn3nc(NC(=O)C4CC4)cc3c2)CN1C` (single isomer, unassigned) [Example 41, trans-N-(5-(4-(((2*R,3*S)-1,2-dimethylazetidin-3-yl)methoxy)-1-methyl-1H-pyrazol-5-yl)pyrazolo[1,5-a]pyridin-2-yl)cyclopropanecarboxamide], the IC50 was 14.6 nM.
Consider `Cc1cc(Nc2cc3cc(-c4c(OC[C@H](O)C5CCC5)cnn4C)ccn3n2)nc(C)n1` (single isomer, unassigned) [Example 444, (*R)-1-cyclobutyl-2-[5-[2-[(2,6-dimethylpyrimidin-4-yl)amino]pyrazolo[1,5-a]pyridin-5-yl]-1-methyl-pyrazol-4-yl]oxy-ethanol], for which the IC50 amounted to 155 nM. This IC50 is about 11-fold higher than that of the compound before.
As to `Cc1cc(Nc2cc3cc(-c4c(OC[C@@H]5CC(=O)N(C)C5)cnn4C)ccn3n2)nc(C)n1` (single isomer, unassigned) [Example 35, *R-4-[[5-[2-[(2,6-dimethylpyrimidin-4-yl)amino]pyrazolo[1,5-a]pyridin-5-yl]-1-methyl-pyrazol-4-yl]oxymethyl]-1-methyl-pyrrolidin-2-one], the midpoint of inhibition, the IC50, lay at 19.2 nM.
Consider `Cc1onc(OC[C@H]2CCN2C)c1-c1ccn2nc(NC(=O)C3CC3)cc2c1` [Example 87, N-[5-[5-methyl-3-[[(2R)-1-methylazetidin-2-yl]methoxy]isoxazol-4-yl]pyrazolo[1,5-a]pyridin-2-yl]cyclopropanecarboxamide], for which the midpoint of inhibition, the IC50, lay at 16.5 nM.
Consider `CCN1CC[C@H]1COc1cnn(C)c1-c1ccn2nc(NC(=O)C3CC3)cc2c1` [Example 47, N-[5-[4-[[(2S)-1-ethylazetidin-2-yl]methoxy]-2-methyl-pyrazol-3-yl]pyrazolo[1,5-a]pyridin-2-yl]cyclopropanecarboxamide], for which the IC50 was 87.7 nM.
Take `[2H]C([2H])([2H])C([2H])([2H])N1CC[C@@H]1COc1cnn(C)c1-c1ccn2nc(NC(=O)C3CC3)cc2c1` [Example 254, N-[5-[2-methyl-4-[[(2R)-1-(1,1,2,2,2-pentadeuterioethyl)azetidin-2-yl]methoxy]pyrazol-3-yl]pyrazolo[1,5-a]pyridin-2-yl]cyclopropanecarboxamide]: the half-inhibitory concentration (IC50) worked out at 1.5 nM.
To `Cn1ncc(OC[C@@H]2CNC[C@H]2O)c1-c1ccn2nc(NC(=O)C3CC3)cc2c1` [Example 416, N-[5-[4-[[(3S,4S)-4-hydroxypyrrolidin-3-yl]methoxy]-2-methyl-pyrazol-3-yl]pyrazolo[1,5-a]pyridin-2-yl]cyclopropanecarboxamide] belongs 73.6 nM.
To `Cn1ncc(OC[C@H](N)c2ccccc2)c1-c1ccn2nc(NC(=O)C3CC3)cc2c1` [Example 237, N-[5-[4-[(2R)-2-amino-2-phenyl-ethoxy]-2-methyl-pyrazol-3-yl]pyrazolo[1,5-a]pyridin-2-yl]cyclopropanecarboxamide] belongs 10.7 nM.
`Cc1onc(OC[C@H]2C[C@H](N)C2)c1-c1ccn2nc(NC(=O)C3CC3)cc2c1` [Example 387, N-[5-[3-[(3-aminocyclobutyl)methoxy]-5-methyl-isoxazol-4-yl]pyrazolo[1,5-a]pyridin-2-yl]cyclopropanecarboxamide] yielded a concentration for half-maximal inhibition (IC50) of 85.8 nM.
In the case of `Cc1cc(Nc2cc3cc(-c4c(OC[C@@H](O)C5(C)CC5)cnn4C)ccn3n2)nc(C)n1` [Example 301, (1S)-2-[5-[2-[(2,6-dimethylpyrimidin-4-yl)amino]pyrazolo[1,5-a]pyridin-5-yl]-1-methyl-pyrazol-4-yl]oxy-1-(1-methylcyclopropyl)ethanol], it took 15.2 nM to reach half-maximal inhibition (IC50).
In turn, `Cc1cc(Nc2cc3cc(-c4c(OCC(N)C56CC(C5)C6)cnn4C)ccn3n2)nc(C)n1` (stereo not shown) [Example 310, 5-[4-[2-amino-2-(3-bicyclo[1.1.1]pentanyl)ethoxy]-2-methyl-pyrazol-3-yl]-N-(2,6-dimethylpyrimidin-4-yl)pyrazolo[1,5-a]pyridin-2-amine] came in with a half-maximal inhibitory concentration (IC50) of 4 nM.
To `CN1CC[C@@H]1COc1cnn(C)c1-c1ccn2nc(NC(=O)[C@H]3C[C@H]3c3ccccc3)cc2c1` [Example 158, (1S,2R)—N-[5-[2-methyl-4-[[(2R)-1-methylazetidin-2-yl]methoxy]pyrazol-3-yl]pyrazolo[1,5-a]pyridin-2-yl]-2-phenyl-cyclopropanecarboxamide] belongs 47.7 nM.
To `Cc1cc(Nc2cc3cc(-c4c(OC[C@H]5C[C@H](C)CN5C)cnn4C)ccn3n2)nc(C)n1` [Example 305, N-(2,6-dimethylpyrimidin-4-yl)-5-[4-[[(2R,4S)-1,4-dimethylpyrrolidin-2-yl]methoxy]-2-methyl-pyrazol-3-yl]pyrazolo[1,5-a]pyridin-2-amine] belongs 16.1 nM.
To `CN1CC[C@@H]1COc1cnn(C)c1-c1ccn2nc(Nc3cnc(C(=O)NCC(C)(C)O)cn3)cc2c1` [Example 132, N-(2-hydroxy-2-methyl-propyl)-5-[[5-[2-methyl-4-[[(2R)-1-methylazetidin-2-yl]methoxy]pyrazol-3-yl]pyrazolo[1,5-a]pyridin-2-yl]amino]pyrazine-2-carboxamide] belongs 8.9 nM; to `Cc1cc(Nc2cc3cc(-c4c(CO[C@@H]5CN(C)C[C@@H]5C)cnn4C)ccn3n2)nc(C)n1` (stereo in doubt) [Example 369, CIS—*S, *S—N-(2,6-dimethylpyrimidin-4-yl)-5-[4-[(1,4-dimethylpyrrolidin-3-yl)oxymethyl]-2-methyl-pyrazol-3-yl]pyrazolo[1,5-a]pyridin-2-amine], 2 nM; to `Cc1cncc(Nc2cc3cc(-c4c(OC[C@H]5CCN5C)cnn4C)ccn3n2)n1` [Example 46, 5-[2-methyl-4-[[(2R)-1-methylazetidin-2-yl]methoxy]pyrazol-3-yl]-N-(6-methylpyrazin-2-yl)pyrazolo[1,5-a]pyridin-2-amine], 2.5 nM.
In turn, `Cc1cc(Nc2cc3cc(-c4c(OC[C@H]5C[C@H](C)CN5)cnn4C)ccn3n2)nc(C)n1` [Example 446, N-(2,6-dimethylpyrimidin-4-yl)-5-[2-methyl-4-[[(2R,4S)-4-methylpyrrolidin-2-yl]methoxy]pyrazol-3-yl]pyrazolo[1,5-a]pyridin-2-amine] returned a concentration for half-maximal inhibition (IC50) of 111 nM.
`CC[C@@H]1CN(C)[C@@H]1COc1cnn(C)c1-c1ccn2nc(NC(=O)C3CC3)cc2c1` [Example 11, N-[5-[4-[[(2S,3R)-3-ethyl-1-methyl-azetidin-2-yl]methoxy]-2-methyl-pyrazol-3-yl]pyrazolo[1,5-a]pyridin-2-yl]cyclopropanecarboxamide] had an IC50 of 117 nM.
To `Cc1cc(Nc2cc3cc(-c4c(OC[C@H]5OCC[C@@H]5O)cnn4C)ccn3n2)nc(C)n1` [Example 300, (2R,3S)-2-[[5-[2-[(2,6-dimethylpyrimidin-4-yl)amino]pyrazolo[1,5-a]pyridin-5-yl]-1-methyl-pyrazol-4-yl]oxymethyl]tetrahydrofuran-3-ol] belongs 10.8 nM; to `Cc1cc(Nc2cc3cc(-c4c(OC[C@@H]5CCN5C)cnn4C)ccn3n2)nc(C(F)(F)F)n1` [Example 308, 5-[2-methyl-4-[[(2S)-1-methylazetidin-2-yl]methoxy]pyrazol-3-yl]-N-[6-methyl-2-(trifluoromethyl)pyrimidin-4-yl]pyrazolo[1,5-a]pyridin-2-amine], 15.3 nM.
`Cc1cc(Nc2cc3cc(-c4c(OCC56CC(CN5)C6)cnn4C)ccn3n2)nc(C)n1` [Example 288, 5-[4-(3-azabicyclo[2.1.1]hexan-4-ylmethoxy)-2-methyl-pyrazol-3-yl]-N-(2,6-dimethylpyrimidin-4-yl)pyrazolo[1,5-a]pyridin-2-amine] displayed a 50% inhibitory concentration (IC50) of 16.8 nM.
Take `CC(C)N1CC[C@H]1COc1cnn(C)c1-c1ccn2nc(NC(=O)C3CC3)cc2c1` [Example 48, N-[5-[4-[[(2S)-1-isopropylazetidin-2-yl]methoxy]-2-methyl-pyrazol-3-yl]pyrazolo[1,5-a]pyridin-2-yl]cyclopropanecarboxamide]: 269 nM corresponded to half-maximal inhibition (IC50).
Consider `CC(C)CN1CC[C@@H]1COc1cnn(C)c1-c1ccn2nc(NC(=O)C3CC3)cc2c1` [Example 244, N-[5-[4-[[(2R)-1-isobutylazetidin-2-yl]methoxy]-2-methyl-pyrazol-3-yl]pyrazolo[1,5-a]pyridin-2-yl]cyclopropanecarboxamide], for which the 50% inhibitory concentration (IC50) was 6.3 nM.
As to `Cc1cc(Nc2cc3cc(-c4c(OC[C@@H]5CCN(C)C5=O)cnn4C)ccn3n2)nc(C)n1` (single isomer, unassigned) [Example 34, (*S)-3-[[5-[2-[(2,6-dimethylpyrimidin-4-yl)amino]pyrazolo[1,5-a]pyridin-5-yl]-1-methyl-pyrazol-4-yl]oxymethyl]-1-methyl-pyrrolidin-2-one], the concentration for half-maximal inhibition (IC50) is 9.2 nM.
On to `Cc1onc(O[C@H]2CCNC2)c1-c1ccn2nc(NC(=O)C3CC3)cc2c1` [Example 75, N-[5-[5-methyl-3-[(3S)-pyrrolidin-3-yl]oxy-isoxazol-4-yl]pyrazolo[1,5-a]pyridin-2-yl]cyclopropanecarboxamide], for which 35 nM corresponded to half-maximal inhibition (IC50). This IC50 lies about 3.8-fold higher than the previous one.
In turn, `CN1CC[C@@H]1COc1cnn(C)c1-c1ccn2nc(Nc3ccnc(NC4CC4)n3)cc2c1` [Example 128, N2-cyclopropyl-N4-[5-[2-methyl-4-[[(2R)-1-methylazetidin-2-yl]methoxy]pyrazol-3-yl]pyrazolo[1,5-a]pyridin-2-yl]pyrimidine-2,4-diamine] returned an IC50 below 0.847 nM.

The values are drawn from patent publication US20240174662A1, “SMALL MOLECULE INHIBITORS OF SALT INDUCIBLE KINASES” (Janssen Biotech, Inc., priority 2021, published 2024).
